ChEMBL document CHEMBL5050828, “Inhibitors of DUX4 induction for regulation of muscle function” (2021)
The source made the active and inactive calls. No cut-off for these calls is given here.

Tests used:
Myoblast [1] = assay: Effect on myosin heavy chain expression in facioscapulohumeral muscular dystrophy (FSHD) affected human embryonic stem cell (hESC)-derived skeletal myoblasts at 100 nM and measured by immunocytochemistry analysis relative to control; format: functional, cell-based
Myoblast [2] = assay: Effect on DUX4-target gene expression in facioscapulohumeral muscular dystrophy (FSHD) primary pateint derived myoblasts at 0.03 to 3 microM assessed as decrease in PRAMEF6 expression; format: functional, cell-based; conditions: Homo sapiens, dose 0.03-3 µM
Myoblast [3] = assay: Effect on DUX4-target gene expression in facioscapulohumeral muscular dystrophy (FSHD) primary pateint derived myoblasts at 0.03 to 3 microM assessed as decrease in ZSCAN4 expression; format: functional, cell-based; conditions: Homo sapiens, dose 0.03-3 µM
Myoblast [4] = assay: Effect on DUX4-target gene expression in facioscapulohumeral muscular dystrophy (FSHD) primary pateint derived myoblasts at 0.03 to 3 microM assessed as decrease in TRIM43 expression; format: functional, cell-based; conditions: Homo sapiens, dose 0.03-3 µM
Myoblast [5] = assay: Effect on DUX4-target gene expression in facioscapulohumeral muscular dystrophy (FSHD) primary pateint derived myoblasts at 0.03 to 3 microM assessed as decrease in PRAMEF2 expression; format: functional, cell-based; conditions: Homo sapiens, dose 0.03-3 µM
Myoblast [6] = assay: Effect on myotube gene expression in facioscapulohumeral muscular dystrophy (FSHD) primary pateint derived myoblasts at 0.03 to 3 microM assessed as decrease in MYH8 expression; format: functional, cell-based; conditions: Homo sapiens, dose 0.03-3 µM
Myoblast [7] = assay: Effect on SRC expression in facioscapulohumeral muscular dystrophy (FSHD) primary pateint derived myoblasts at 0.01 to 1 uM and measured by RT-PCR analysis; format: functional, cell-based; conditions: Homo sapiens, dose 0.01-1 µM
Myoblast [8] = assay: Effect on DUX4-target gene expression in facioscapulohumeral muscular dystrophy (FSHD) primary pateint derived myoblasts at 0.03 to 3 microM assessed as decrease in CCNA1 expression; format: functional, cell-based; conditions: Homo sapiens, dose 0.03-3 µM
Myoblast [9] = assay: Effect on myotube gene expression in facioscapulohumeral muscular dystrophy (FSHD) primary pateint derived myoblasts at 0.03 to 3 microM assessed as decrease in MYOG expression; format: functional, cell-based; conditions: Homo sapiens, dose 0.03-3 µM
Myoblast [10] = assay: Rescue of cell death in facioscapulohumeral muscular dystrophy (FSHD) primary pateint derived myoblasts at 0.01 to 3 uM and measured by live cell imaging method; format: functional, cell-based; conditions: Homo sapiens, dose 0.01-3 µM
[11] = Half-life in male CD-1 mouse at 10 mg/kg, IM measured by LC-MS/MS analysis; format: ADME, organism-based; conditions: in vivo
Myoblast [12] = assay: Effect on DUX4-target gene expression in facioscapulohumeral muscular dystrophy (FSHD) primary pateint derived myoblasts at 0.03 to 3 microM assessed as decrease in MBD3L2 expression; format: functional, cell-based; conditions: Homo sapiens, dose 0.03-3 µM
[13] = Brain concentration in male CD-1 mouse at 10 mg/kg, IM administered as single dose and measured by LC-MS/MS analysis; format: ADME, organism-based; conditions: in vivo, BLD = below limit of detection
[14] = Downregulation of DUX4 expression in facioscapulohumeral muscular dystrophy (FSHD) primary pateint derived myoblasts and measured by immunocytochemistry analysis; format: functional, cell-based; conditions: Homo sapiens, Myoblast
Myoblast [15] = assay: Effect on DNA methylation levels at D4Z4 regions of chromosome 4 in myotubes of facioscapulohumeral muscular dystrophy (FSHD) affected human embryonic stem cell (hESC)-derived skeletal myoblasts at 0.01 to 1 uM; format: functional, cell-based; conditions: dose 0.01-1 µM
[16] = target: DNA-dependent protein kinase catalytic subunit (Homo sapiens) (UniProt P78527); assay: Inhibition of PRKDC in facioscapulohumeral muscular dystrophy (FSHD) primary pateint derived myoblasts at 0.01 to 1 uM and measured by immunofluorescence method; format: cell-based; conditions: Myoblast, dose 0.01-1 µM
DNA-dependent protein kinase catalytic subunit (Homo sapiens), sequence (P78527 whole entry): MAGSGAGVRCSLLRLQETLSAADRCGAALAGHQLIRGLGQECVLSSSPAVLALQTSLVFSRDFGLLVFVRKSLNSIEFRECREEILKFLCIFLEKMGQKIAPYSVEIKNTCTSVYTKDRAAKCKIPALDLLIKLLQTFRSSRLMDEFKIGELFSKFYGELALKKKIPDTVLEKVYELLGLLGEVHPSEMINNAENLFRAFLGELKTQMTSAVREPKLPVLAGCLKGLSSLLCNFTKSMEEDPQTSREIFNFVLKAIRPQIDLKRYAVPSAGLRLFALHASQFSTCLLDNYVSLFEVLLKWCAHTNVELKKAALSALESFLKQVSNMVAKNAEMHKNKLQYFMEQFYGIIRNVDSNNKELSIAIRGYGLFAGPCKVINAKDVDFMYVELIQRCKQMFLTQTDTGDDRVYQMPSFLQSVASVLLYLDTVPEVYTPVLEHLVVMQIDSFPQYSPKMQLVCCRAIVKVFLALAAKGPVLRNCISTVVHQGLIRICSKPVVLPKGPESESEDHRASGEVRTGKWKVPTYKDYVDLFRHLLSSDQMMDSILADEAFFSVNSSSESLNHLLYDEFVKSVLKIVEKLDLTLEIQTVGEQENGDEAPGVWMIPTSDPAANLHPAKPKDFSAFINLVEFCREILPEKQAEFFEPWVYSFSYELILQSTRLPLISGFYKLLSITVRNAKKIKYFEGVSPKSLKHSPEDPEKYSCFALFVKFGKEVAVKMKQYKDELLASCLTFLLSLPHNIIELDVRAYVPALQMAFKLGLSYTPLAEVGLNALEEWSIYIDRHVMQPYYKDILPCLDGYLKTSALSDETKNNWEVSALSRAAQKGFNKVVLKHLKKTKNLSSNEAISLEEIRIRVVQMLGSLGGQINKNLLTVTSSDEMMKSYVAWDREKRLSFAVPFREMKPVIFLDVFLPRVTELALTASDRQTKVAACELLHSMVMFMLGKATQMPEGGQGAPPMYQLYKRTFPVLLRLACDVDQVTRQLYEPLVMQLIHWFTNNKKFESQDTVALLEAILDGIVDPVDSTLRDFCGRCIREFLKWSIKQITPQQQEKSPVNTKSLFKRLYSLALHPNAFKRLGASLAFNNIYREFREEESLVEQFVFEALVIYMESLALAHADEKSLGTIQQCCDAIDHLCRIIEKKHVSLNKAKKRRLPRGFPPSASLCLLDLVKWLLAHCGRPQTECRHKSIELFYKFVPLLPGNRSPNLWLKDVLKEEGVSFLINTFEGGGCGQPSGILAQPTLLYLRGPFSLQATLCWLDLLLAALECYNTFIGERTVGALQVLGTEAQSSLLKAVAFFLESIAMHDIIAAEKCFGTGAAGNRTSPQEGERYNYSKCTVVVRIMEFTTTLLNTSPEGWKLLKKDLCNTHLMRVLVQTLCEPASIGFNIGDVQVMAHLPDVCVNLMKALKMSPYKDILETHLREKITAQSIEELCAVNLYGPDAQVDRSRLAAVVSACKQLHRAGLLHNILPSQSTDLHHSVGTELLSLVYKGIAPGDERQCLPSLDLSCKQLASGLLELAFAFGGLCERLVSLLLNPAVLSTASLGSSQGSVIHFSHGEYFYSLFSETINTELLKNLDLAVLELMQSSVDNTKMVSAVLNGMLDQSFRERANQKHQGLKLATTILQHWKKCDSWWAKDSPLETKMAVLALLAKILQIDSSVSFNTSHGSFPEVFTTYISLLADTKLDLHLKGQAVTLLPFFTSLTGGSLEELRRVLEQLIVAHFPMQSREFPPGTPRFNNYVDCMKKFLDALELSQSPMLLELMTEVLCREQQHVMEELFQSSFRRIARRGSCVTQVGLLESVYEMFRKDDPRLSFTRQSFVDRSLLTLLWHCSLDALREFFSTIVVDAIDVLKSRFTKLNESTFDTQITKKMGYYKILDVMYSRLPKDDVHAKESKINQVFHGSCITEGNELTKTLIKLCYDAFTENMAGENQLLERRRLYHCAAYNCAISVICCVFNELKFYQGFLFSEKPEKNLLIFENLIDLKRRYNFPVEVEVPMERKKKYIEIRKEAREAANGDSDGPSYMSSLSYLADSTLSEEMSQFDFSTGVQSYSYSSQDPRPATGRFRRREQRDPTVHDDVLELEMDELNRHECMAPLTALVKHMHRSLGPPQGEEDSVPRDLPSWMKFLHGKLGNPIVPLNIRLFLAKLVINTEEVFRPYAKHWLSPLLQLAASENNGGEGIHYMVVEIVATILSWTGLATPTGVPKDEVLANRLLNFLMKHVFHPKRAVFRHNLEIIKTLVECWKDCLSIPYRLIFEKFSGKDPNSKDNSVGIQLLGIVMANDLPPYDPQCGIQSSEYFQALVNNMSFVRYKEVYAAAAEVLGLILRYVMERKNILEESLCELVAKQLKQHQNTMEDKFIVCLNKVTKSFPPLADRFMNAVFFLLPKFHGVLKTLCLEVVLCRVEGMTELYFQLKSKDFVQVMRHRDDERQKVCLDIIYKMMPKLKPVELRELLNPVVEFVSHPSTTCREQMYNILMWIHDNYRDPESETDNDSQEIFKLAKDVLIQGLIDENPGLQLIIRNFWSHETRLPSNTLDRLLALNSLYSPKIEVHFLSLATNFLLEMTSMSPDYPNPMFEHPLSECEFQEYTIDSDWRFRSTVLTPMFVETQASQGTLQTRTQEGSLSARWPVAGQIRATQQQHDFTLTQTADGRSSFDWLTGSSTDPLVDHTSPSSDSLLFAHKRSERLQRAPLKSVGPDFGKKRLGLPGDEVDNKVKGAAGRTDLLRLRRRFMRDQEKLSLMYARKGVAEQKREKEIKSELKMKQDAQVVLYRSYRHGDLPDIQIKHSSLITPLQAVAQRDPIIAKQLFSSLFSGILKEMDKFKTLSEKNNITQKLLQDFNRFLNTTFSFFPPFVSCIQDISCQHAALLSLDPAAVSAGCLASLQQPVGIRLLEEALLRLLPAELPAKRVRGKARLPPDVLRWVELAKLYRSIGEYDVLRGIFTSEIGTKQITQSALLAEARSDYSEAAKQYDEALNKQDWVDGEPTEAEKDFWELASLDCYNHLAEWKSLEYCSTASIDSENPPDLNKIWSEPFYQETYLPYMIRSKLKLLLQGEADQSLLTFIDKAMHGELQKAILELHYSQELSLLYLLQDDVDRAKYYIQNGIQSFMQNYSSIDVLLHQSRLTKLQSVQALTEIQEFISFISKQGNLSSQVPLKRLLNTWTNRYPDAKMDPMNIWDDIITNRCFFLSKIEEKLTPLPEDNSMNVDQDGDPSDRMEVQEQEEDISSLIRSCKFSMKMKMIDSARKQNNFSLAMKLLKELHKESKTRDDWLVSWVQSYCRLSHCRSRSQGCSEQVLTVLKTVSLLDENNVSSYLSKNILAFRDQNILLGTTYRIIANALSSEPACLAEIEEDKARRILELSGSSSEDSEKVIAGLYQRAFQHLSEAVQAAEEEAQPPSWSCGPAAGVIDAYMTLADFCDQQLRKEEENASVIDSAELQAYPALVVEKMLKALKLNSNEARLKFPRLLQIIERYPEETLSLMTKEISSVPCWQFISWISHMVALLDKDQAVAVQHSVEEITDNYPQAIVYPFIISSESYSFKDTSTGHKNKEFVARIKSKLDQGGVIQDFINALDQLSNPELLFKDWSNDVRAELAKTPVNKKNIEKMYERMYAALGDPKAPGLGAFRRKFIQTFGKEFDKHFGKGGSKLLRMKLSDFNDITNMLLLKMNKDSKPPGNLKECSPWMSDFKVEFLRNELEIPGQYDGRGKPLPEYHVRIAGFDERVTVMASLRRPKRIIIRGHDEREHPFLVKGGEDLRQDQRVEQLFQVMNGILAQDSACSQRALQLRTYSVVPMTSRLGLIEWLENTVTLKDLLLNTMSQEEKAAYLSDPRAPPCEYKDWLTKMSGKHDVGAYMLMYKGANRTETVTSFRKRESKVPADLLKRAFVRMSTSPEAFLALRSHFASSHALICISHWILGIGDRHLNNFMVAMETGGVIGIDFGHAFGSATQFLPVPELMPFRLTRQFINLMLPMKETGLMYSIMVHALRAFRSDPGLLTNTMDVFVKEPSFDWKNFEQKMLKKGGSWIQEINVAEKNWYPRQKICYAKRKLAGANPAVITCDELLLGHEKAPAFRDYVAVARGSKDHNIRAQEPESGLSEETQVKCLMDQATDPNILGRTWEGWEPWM

Myoblast [17] = assay: Effect on DNA methylation levels at 4qA regions of chromosome 4 in myotubes of facioscapulohumeral muscular dystrophy (FSHD) affected human embryonic stem cell (hESC)-derived skeletal myoblasts at 0.01 to 1 uM; format: functional, cell-based; conditions: dose 0.01-1 µM
Myoblast [18] = assay: Effect on myotube gene expression in facioscapulohumeral muscular dystrophy (FSHD) primary pateint derived myoblasts at 0.03 to 3 microM assessed as decrease in DMD expression; format: functional, cell-based; conditions: Homo sapiens, dose 0.03-3 µM
Myoblast [19] = assay: Effect on DUX4-target gene expression in facioscapulohumeral muscular dystrophy (FSHD) primary pateint derived myoblasts at 0.03 to 3 microM assessed as decrease in ZNF296 expression; format: functional, cell-based; conditions: Homo sapiens, dose 0.03-3 µM
Myoblast [20] = assay: Downregulation of DUX4 expression in facioscapulohumeral muscular dystrophy (FSHD) affected human embryonic stem cell (hESC)-derived skeletal myoblasts at 100 nM and measured by immunocytochemistry analysis relative to control; format: functional, cell-based
Myoblast [21] = assay: Effect on myosin heavy chain expression in facioscapulohumeral muscular dystrophy (FSHD) affected human embryonic stem cell (hESC)-derived skeletal myoblasts at 0.01 to 3 uM and measured by immunocytochemistry analysis relative to control; format: functional, cell-based; conditions: dose 0.01-3 µM
Myoblast [22] = assay: Effect on DUX4-target gene expression in facioscapulohumeral muscular dystrophy (FSHD) primary pateint derived myoblasts at 0.03 to 3 microM assessed as decrease in LEUTX expression; format: functional, cell-based; conditions: Homo sapiens, dose 0.03-3 µM
Myoblast [23] = assay: Effect on myotube gene expression in facioscapulohumeral muscular dystrophy (FSHD) primary pateint derived myoblasts at 0.03 to 3 microM assessed as decrease in MYH3 expression; format: functional, cell-based; conditions: Homo sapiens, dose 0.03-3 µM
Myoblast [24] = assay: Effect on myotube gene expression in facioscapulohumeral muscular dystrophy (FSHD) primary pateint derived myoblasts at 0.03 to 3 microM assessed as decrease in DES expression; format: functional, cell-based; conditions: Homo sapiens, dose 0.03-3 µM
Myoblast [25] = assay: Effect on DUX4-target gene expression in facioscapulohumeral muscular dystrophy (FSHD) primary pateint derived myoblasts at 0.03 to 3 microM assessed as decrease in TRIM49 expression; format: functional, cell-based; conditions: Homo sapiens, dose 0.03-3 µM
[26] = target: Proto-oncogene tyrosine-protein kinase Src (Homo sapiens) (UniProt P12931); assay: Inhibition of SRC in facioscapulohumeral muscular dystrophy (FSHD) primary pateint derived myoblasts at 0.01 to 1 uM and measured by immunofluorescence method; format: cell-based; conditions: Myoblast, dose 0.01-1 µM
Proto-oncogene tyrosine-protein kinase Src (Homo sapiens), sequence (P12931 2-536 limits assumed): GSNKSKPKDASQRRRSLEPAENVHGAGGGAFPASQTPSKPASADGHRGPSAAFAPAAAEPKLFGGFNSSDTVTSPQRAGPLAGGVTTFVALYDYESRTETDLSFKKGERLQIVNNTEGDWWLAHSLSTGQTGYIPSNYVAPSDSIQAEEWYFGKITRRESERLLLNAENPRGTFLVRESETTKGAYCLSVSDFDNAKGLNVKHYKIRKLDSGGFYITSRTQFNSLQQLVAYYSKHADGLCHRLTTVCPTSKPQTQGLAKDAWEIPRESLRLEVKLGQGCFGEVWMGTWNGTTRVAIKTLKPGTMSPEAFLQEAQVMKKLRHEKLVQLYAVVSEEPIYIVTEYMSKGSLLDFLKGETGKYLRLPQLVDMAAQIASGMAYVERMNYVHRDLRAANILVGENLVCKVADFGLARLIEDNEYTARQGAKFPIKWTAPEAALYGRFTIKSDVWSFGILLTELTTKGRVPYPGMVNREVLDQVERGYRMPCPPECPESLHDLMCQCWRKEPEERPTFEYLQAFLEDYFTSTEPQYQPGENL

Myoblast [27] = assay: Effect on nuclei count in facioscapulohumeral muscular dystrophy (FSHD) affected human embryonic stem cell (hESC)-derived skeletal myoblasts at 100 nM and measured by immunocytochemistry analysis relative to control; format: functional, cell-based
Myoblast [28] = assay: Downregulation of DUX4 expression in facioscapulohumeral muscular dystrophy (FSHD) affected human embryonic stem cell (hESC)-derived skeletal myoblasts at 0.01 to 3 uM and measured by immunocytochemistry analysis relative to control; format: functional, cell-based; conditions: dose 0.01-3 µM
[29] = Half-life in male CD-1 mouse at 50 mg/kg, IM measured by LC-MS/MS analysis; format: ADME, organism-based; conditions: in vivo
Myoblast [30] = assay: Effect on myotube gene expression in facioscapulohumeral muscular dystrophy (FSHD) primary pateint derived myoblasts at 0.03 to 3 microM assessed as decrease in CKM expression; format: functional, cell-based; conditions: Homo sapiens, dose 0.03-3 µM
Myoblast [31] = assay: Rescue of apoptosis in facioscapulohumeral muscular dystrophy (FSHD) primary pateint derived myoblasts at 0.01 to 3 uM assessed as decrease in caspase 3/7 activation and measured by live cell imaging method; format: functional, cell-based; conditions: Homo sapiens, dose 0.01-3 µM
Myoblast [32] = assay: Effect on PRKDC expression in facioscapulohumeral muscular dystrophy (FSHD) primary pateint derived myoblasts at 0.01 to 1 uM and measured by RT-PCR analysis; format: functional, cell-based; conditions: Homo sapiens, dose 0.01-1 µM
[33] = Downregulation of DUX4 expression in facioscapulohumeral muscular dystrophy (FSHD) affected human embryonic stem cell (hESC)-derived skeletal myoblasts and measured by immunocytochemistry analysis; format: functional, cell-based; conditions: Myoblast
Myoblast [34] = assay: Effect on DUX4-target gene expression in facioscapulohumeral muscular dystrophy (FSHD) primary pateint derived myoblasts at 0.03 to 3 microM assessed as decrease in SPRYD5 expression; format: functional, cell-based; conditions: Homo sapiens, dose 0.03-3 µM
Myoblast [35] = assay: Effect on DUX4-target gene expression in facioscapulohumeral muscular dystrophy (FSHD) primary pateint derived myoblasts at 0.03 to 3 microM assessed as decrease in KHDC1L expression; format: functional, cell-based; conditions: Homo sapiens, dose 0.03-3 µM

CNC(=O)c1cc(Oc2ccc(NC(=O)Nc3cc(C(C)(C)C)nn3-c3ccc4ncccc4c3)c(F)c2)ccn1 [REBASTINIB]
Activity (Myoblast [1]): inactive
Activity (Myoblast [2]): Active
Activity (Myoblast [3]): Active
Activity (Myoblast [4]): Active
Activity (Myoblast [5]): Active
Activity (Myoblast [6]): inactive
Activity (Myoblast [7]): inactive
Activity (Myoblast [8]): Active
Activity (Myoblast [9]): inactive
Activity (Myoblast [10]): Active
half-life [11]: 335 min
Activity (Myoblast [12]): Active
Drug uptake [13]: Bld
IC50 [14]: 100 nM
Activity (Myoblast [15]): inactive
inhibition [16]: Active
Activity (Myoblast [17]): inactive
Activity (Myoblast [18]): inactive
Activity (Myoblast [19]): Active
Activity (Myoblast [20]): Active
Activity (Myoblast [21]): inactive
Activity (Myoblast [22]): Active
Activity (Myoblast [23]): inactive
Activity (Myoblast [24]): inactive
Activity (Myoblast [25]): Active
inhibition [26]: Active
Activity (Myoblast [27]): inactive
Activity (Myoblast [28]): Active
half-life [29]: 486 min
Activity (Myoblast [30]): inactive
Activity (Myoblast [31]): Active
Activity (Myoblast [32]): inactive
EC50 [33]: 37.9 µM
Activity (Myoblast [34]): Active
Activity (Myoblast [35]): Active
